The source of these data is ChEMBL document CHEMBL1152690, “The spirocyclopropyl moiety as a methyl surrogate in the structure of l-fucosidase and l-rhamnosidase inhibitors” (Bioorg Med Chem, 2009).

Assay [1] deals with Prunus dulcis. Briefly: Inhibition of almond beta-glucosidase at 1 mM.
Assay [2] deals with Aspergillus niger. Nature of the assay: Inhibition of Aspergillus niger amyloglucosidase at 1 mM.
The target of assay [3] is Beta-galactosidase (Escherichia coli) (UniProt Q8VNN2). Briefly: Inhibition of Escherichia coli beta-galactosidase at 1 mM.
Chain of Beta-galactosidase (Escherichia coli) (Q8VNN2 whole entry, looked up): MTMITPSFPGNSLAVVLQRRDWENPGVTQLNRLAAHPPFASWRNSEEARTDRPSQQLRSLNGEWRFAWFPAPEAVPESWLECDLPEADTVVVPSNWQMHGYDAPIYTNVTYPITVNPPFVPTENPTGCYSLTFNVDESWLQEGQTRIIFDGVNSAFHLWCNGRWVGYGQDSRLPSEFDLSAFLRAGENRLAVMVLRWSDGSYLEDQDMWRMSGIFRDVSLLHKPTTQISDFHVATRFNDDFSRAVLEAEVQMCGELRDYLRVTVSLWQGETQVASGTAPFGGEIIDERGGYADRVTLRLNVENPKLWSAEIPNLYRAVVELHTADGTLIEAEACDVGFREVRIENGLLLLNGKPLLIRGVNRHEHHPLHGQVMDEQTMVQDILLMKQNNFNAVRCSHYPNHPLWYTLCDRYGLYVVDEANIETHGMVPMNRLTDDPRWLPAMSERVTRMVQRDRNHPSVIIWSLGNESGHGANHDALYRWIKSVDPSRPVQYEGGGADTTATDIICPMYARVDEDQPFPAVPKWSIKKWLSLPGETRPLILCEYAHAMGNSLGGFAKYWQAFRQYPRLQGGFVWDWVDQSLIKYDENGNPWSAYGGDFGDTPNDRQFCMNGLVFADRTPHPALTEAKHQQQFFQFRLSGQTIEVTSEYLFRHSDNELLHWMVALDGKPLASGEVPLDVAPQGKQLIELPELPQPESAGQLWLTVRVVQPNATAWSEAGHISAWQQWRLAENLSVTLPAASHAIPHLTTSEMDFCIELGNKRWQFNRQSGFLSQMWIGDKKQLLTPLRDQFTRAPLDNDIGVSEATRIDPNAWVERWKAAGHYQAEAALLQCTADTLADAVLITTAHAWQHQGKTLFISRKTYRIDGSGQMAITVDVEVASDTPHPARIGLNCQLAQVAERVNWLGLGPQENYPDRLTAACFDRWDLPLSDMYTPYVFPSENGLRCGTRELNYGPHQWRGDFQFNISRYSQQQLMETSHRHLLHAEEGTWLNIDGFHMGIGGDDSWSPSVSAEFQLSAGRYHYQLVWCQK
Assay [4] relates to Canavalia ensiformis. Briefly: Inhibition of jack bean beta-N-acetylglucosaminidase at 1 mM.
Assay [5] concerns Helix pomatia. Briefly: Inhibition of snail beta-mannosidase at 1 mM.
In assay [6] the target is T1, Tissue alpha-L-fucosidase (Bos taurus) (UniProt Q2KIM0).
T1 sequence (whole entry): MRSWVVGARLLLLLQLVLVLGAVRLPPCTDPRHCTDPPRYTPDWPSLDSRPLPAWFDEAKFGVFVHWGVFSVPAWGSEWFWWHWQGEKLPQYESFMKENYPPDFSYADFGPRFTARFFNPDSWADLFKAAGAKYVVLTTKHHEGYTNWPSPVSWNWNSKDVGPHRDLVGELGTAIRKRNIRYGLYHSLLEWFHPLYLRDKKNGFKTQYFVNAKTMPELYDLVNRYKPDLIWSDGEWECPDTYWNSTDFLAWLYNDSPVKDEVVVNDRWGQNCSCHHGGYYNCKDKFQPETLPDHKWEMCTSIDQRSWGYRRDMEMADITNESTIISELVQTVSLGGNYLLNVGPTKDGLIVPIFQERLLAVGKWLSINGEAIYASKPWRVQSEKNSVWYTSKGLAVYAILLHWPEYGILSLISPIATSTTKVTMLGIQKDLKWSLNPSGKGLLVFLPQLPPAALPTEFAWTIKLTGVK
Briefly: Inhibition of bovine kidney alpha-L-fucosidase at 1 mM by para-nitrophenolate release assay.

For assay [7], the system named is Canavalia ensiformis. Nature of the assay: Inhibition of jack bean alpha-mannosidase at 1 mM.
Assay [8] concerns Coffea arabica. Nature of the assay: Inhibition of coffee bean alpha-galactosidase at 1 mM.
In assay [9] the test system is Aspergillus niger. Briefly: Inhibition of Aspergillus niger beta-xylosidase at 1 mM.
Assay [10] has as its system Saccharomyces cerevisiae. Nature of the assay: Inhibition of yeast alpha-glucosidase at 1 mM.
In assay [11] the test system is Oryza sativa. Nature of the assay: Inhibition of rice alpha-glucosidase at 1 mM.
Assay [12] concerns Penicillium decumbens. Nature of the assay: Inhibition of Penicillium decumbens Alpha-L-rhamnosidase at 1 mM by para-nitrophenolate release assay.
The species named for assay [13] is Bos taurus. Briefly: Inhibition of bovine kidney beta-N-acetylglucosaminidase at 1 mM.
In assay [14] the target is T2, Beta-galactosidase (Aspergillus oryzae) (UniProt Q2U7N3).
T2 sequence (whole entry): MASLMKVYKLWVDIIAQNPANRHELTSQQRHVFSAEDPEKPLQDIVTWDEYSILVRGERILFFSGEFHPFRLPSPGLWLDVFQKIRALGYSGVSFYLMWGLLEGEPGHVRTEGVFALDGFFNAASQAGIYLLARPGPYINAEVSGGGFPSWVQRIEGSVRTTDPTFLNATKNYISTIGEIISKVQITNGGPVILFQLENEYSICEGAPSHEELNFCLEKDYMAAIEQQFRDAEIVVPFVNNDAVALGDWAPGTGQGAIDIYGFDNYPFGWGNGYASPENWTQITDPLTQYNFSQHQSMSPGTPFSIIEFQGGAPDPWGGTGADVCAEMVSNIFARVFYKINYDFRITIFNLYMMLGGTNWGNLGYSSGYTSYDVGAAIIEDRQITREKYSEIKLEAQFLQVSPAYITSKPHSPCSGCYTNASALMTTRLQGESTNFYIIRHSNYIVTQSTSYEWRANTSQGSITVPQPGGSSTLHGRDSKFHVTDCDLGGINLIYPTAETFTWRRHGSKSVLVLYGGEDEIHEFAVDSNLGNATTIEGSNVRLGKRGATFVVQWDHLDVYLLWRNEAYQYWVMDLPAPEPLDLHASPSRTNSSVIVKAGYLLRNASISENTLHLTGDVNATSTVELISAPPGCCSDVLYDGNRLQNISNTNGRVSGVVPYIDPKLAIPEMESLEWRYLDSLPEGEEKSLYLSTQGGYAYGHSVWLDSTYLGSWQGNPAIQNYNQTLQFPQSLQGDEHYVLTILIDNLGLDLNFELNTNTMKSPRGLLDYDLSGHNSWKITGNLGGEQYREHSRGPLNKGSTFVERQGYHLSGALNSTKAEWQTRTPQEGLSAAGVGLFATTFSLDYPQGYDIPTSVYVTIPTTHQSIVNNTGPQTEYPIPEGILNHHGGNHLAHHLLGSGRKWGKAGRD
Briefly: Inhibition of Aspergillus oryzae beta-galactosidase at 1 mM.

Assay [15] in a line: Inhibition of Penicillium decumbens Alpha-L-rhamnosidase by para-nitrophenolate release assay.
Assay [16] concerns the target T1, Tissue alpha-L-fucosidase (Bos taurus). Conditions: 1 mM.
Description: Inhibition of bovine lysosomal alpha-L-fucosidase at 1 mM by para-nitrophenolate release assay
In assay [17] the test system is Penicillium decumbens. Nature of the assay: Inhibition of Penicillium decumbens lysosomal Alpha-L-rhamnosidase at 1 mM by para-nitrophenolate release assay.
The target in assay [18] is T3, Tissue alpha-L-fucosidase (Bos taurus, UniProt Q2KIM0).
T3 sequence (Q2KIM0 whole entry): T1 sequence (whole entry)
Briefly: Inhibition of bovine kidney alpha-L-fucosidase by para-nitrophenolate release assay.

Molecules are shown by their SMILES. The source made the active and inactive calls. The rule behind the calls is not given here.

As usually defined, the inhibition is the drop in the measured response relative to a control, in per cent. For `O[C@@H]1[C@@H](O)C2(CC2)NC[C@@H]1O`, the inhibition entry in assay [1], in assay [2], in [3], in [4], in [5] and in assay [6] was “inactive” each time. The inhibition result in [7], in [8], in [9], in assay [10], in assay [11] and in assay [13] was “inactive” in each case. Also, the inhibition entry in assay [14] is “inactive”. In [12], the inhibition came out at 72%.
As usually defined, the Ki is the equilibrium dissociation constant of an inhibitor or competing ligand from its target. Higher therefore signals lower affinity. In turn, `C[C@@H]1C[C@H](O)C2[C@@H](O)[C@@H](O)CN2C1` (single isomer, unassigned) came in with a Ki in assay [15] of 0.03 µM.
`O[C@H]1C=NC2(CC2)[C@H]1O`: the inhibition result in assay [1], in assay [2], in assay [3], in assay [4], in assay [5] and in [7] was “inactive” each time. Further, the inhibition result in [8], in assay [9], in assay [10], in [11], in [13] and in assay [14] was “inactive” throughout. Moreover, the Ki in [15] was 57 µM. In addition, the inhibition is 76% in assay [6] and 87% in [12].
In the case of `O[C@@H]1[C@@H](O)C=NC12CC2`, the inhibition entry in assay [1], in [2], in assay [3], in [4], in assay [5] and in [7] was “inactive” throughout. Also, the inhibition result in assay [8], in assay [9], in assay [10], in [11], in assay [13] and in [14] was “inactive” throughout. In addition, the figures for the inhibition in [6] and in assay [12] were 19% and 72%, respectively.
With `C[C@@H]1NC[C@H](O)[C@H](O)[C@H]1O`, the inhibition entry in [16] and in assay [17] was “inactive” in each case. The compound further had an inhibition in assay [12] of 0%.
Take `COc1ccc(C[C@@H]2NC[C@H](O)[C@H]2O)cc1`: the Ki in assay [15] is 3 µM.
Turning to `O[C@H]1[C@H](O)CNC2(CC2)[C@H]1O`, the inhibition result in [1], in assay [2], in assay [3], in [4], in [5] and in [7] was “inactive” each time. In addition, the inhibition result in assay [8], in [9], in assay [10], in assay [11], in assay [12] and in [13] was “inactive” throughout. Besides, the inhibition entry in assay [14] was “inactive”. In addition, the inhibition in assay [6] amounted to 83%. Besides, in [18], affinity was put at a Ki of 18 µM.
In turn, `C[C@@H]1N=C[C@H](O)[C@H]1O` gave a Ki in [15] of 0.14 µM.
The same measure, in the same setting: then `C[C@@H]1NC[C@H](O)[C@H]1O`, with 5.5 µM.
Turning to `C[C@@H]1N[C@@H](O)[C@@H](O)[C@H](O)[C@@H]1O`, in assay [18], the inhibitory constant (Ki) came out at 0.001 µM.
In turn, `COc1ccc(C[C@@H]2NC[C@@H](O)[C@H]2O)cc1` yielded a Ki in assay [15] of 3.2 µM.
Consider `C[C@@H]1N=C[C@H](O)[C@@H]1O`, for which the Ki in assay [18] worked out at 0.01 µM.
With `C[C@H]1NC[C@H](O)[C@H](O)[C@H]1O`, the Ki in assay [15] and in [18] was 1 µM in each case. The compound also yielded an inhibition in [6] of 99%.
